Results as given in patent US20090143279A1 (priority 2007, published 2009).
Like-named read-outs stand apart in the source and are kept apart here.

Key:
[1] = test system: OXPHOS gene expression; assay type: cell-based, mouse; conditions: for GE-HTS (composite Z-score): normalized score vs mock-treated (DMSO) wells
[2] = test system: reactive oxygen species; assay type: cell-based, mouse; conditions: for ROS (composite Z-score): normalized score vs mock-treated (DMSO) wells
[3] = test system: microtubules; assay: Tubulin immunofluorescence; assay type: cell-based, mouse; conditions: C2C12 myotubes, 48 hours, 10 nM to 10 μM, FIG. 7
Procedure: Tubulin immunofluorescence. […] Cells were washed once in 50 μl PBSTB2 (PBS with 0.1% (vol/vol) Tween-20 and 2% (wt/vol) BSA) and blocked in PBSTB2 for 1 h at room temperature or overnight at 4° C. Cells were incubated with an anti-α-tubulin (Sigma-Aldrich) antibody, 1:1,000 in PBSTB2, for 1 h at room temperature, and then washed three times with PBSTB2. […] Cells were visualized using an automated microscope (IX-Micro, Molecular Devices).

[4] = test system: mitochondrial membrane potential; assay type: cell-based, mouse; conditions: for ΔΨm (composite Z-score): normalized score vs mock-treated (DMSO) wells
[5] = test system: cellular dehydrogenase activity; conditions: for MTT (composite Z-score): normalized score vs mock-treated (DMSO) wells
[6] = test system: C2C12 myotubes; conditions: for Viability (composite Z-score): normalized score vs mock-treated (DMSO) wells
[7] = test system: nuOXPHOS transcripts; assay type: cell-based, mouse; conditions: for nucOX (composite Z-score): normalized score vs mock-treated (DMSO) wells
[8] = test system: cytochrome c; assay type: cell-based, mouse; conditions: for cyt c (composite Z-score): normalized score vs mock-treated (DMSO) wells
[9] = test system: mtOXPHOS transcripts; assay type: cell-based, mouse; conditions: for mitoOX (composite Z-score): normalized score vs mock-treated (DMSO) wells
[10] = Table 3, differentiated C2C12 myotubes, 48 h treatment, composite Z-score vs DMSO
[11] = retest at 20 nM to 20 μM, FIG. 6a
[12] = normalized composite Z-score vs mock-treated (DMSO) wells, Conc 20 μM
[13] = 20 μM, composite Z-score vs DMSO
[14] = composite Z-score vs mock-treated (DMSO) wells, Conc 20 μM
[15] = composite Z-score vs DMSO, Conc 20 μM
[16] = Table 7, C2C12 myotubes, 48 h, composite Z-score

For `CC(=O)O[C@H]1C(=O)[C@@]2(C)[C@H]([C@H](OC(=O)c3ccccc3)[C@]3(O)C[C@H](OC(=O)[C@H](O)[C@@H](NC(=O)c4ccccc4)c4ccccc4)C(C)=C1C3(C)C)[C@]1(OC(C)=O)CO[C@@H]1C[C@@H]2O` [paclitaxel, reference compound], the GEHTS_Zscore [1, 10] was 2.451, the OXPHOS expression ([1]; primary screen, in words) was “boost OXPHOS expression” and the “dose showing effect on OXPHOS expression” value [1, 11] was 20 nM. For the same compound, the “ROS Zscore” value [2, 10] was −1.967, the ROS levels ([2]; primary screen, in words) was “suppressing ROS levels” and the “dose showing effect on ROS level” value [2, 11] was 20 nM. For the same compound, the “potency required for microtubule disruption” value [3] was “the same as that required to affect OXPHOS expression and ROS level”.

With `CC1=C2C(O)C(=O)OC3CC4C(C)(C)C(=O)C=C[C@]4(C)C(CC1)[C@]23C` (stereo partly drawn) [merogedunin] the ΔΨm [4, 12] was −0.214, the MTT [5, 12] was −0.645 and the Viability [6, 12] was −0.222. It also gave a nucOX [7, 12] of −0.160, a GE-HTS [1, 12] of −0.254 and a cyt c [8, 12] of 0.490. For the same compound, the ROS [2, 12] was 0.741 and the mitoOX [9, 12] was −0.350.

In the case of `C=C1C2CC[C@@]3(C)[C@H](c4ccoc4)OC(=O)C[C@]13O[C@H]1CC(=O)C(C)(C)[C@H](C(OC(C)=O)C(=O)OC)[C@@]21C` (stereo partly drawn) [6-acetoxyangolensic acid methyl ester], the “ΔΨm (composite Z-score)” value ([4]; Conc 20 μM) is reported as −0.055, the “MTT (composite Z-score)” value ([5]; Conc 20 μM) is reported as −0.663 and the “Viability (composite Z-score)” value ([6]; Conc 20 μM) is reported as 0.671. For the same compound, the “nucOX (composite Z-score)” value ([7]; Conc 20 μM) was 1.291, the “GE-HTS (composite Z-score)” value ([1]; Conc 20 μM) was 1.379 and the “cyt c (composite Z-score)” value ([8]; Conc 20 μM) was −0.105. For the same compound, the “ROS (composite Z-score)” value ([2]; Conc 20 μM) was 1.137 and the “mitoOX (composite Z-score)” value ([9]; Conc 20 μM) was 1.272.

`NC(=O)c1cc([N+](=O)[O-])cc([N+](=O)[O-])c1` [nitromide] showed a ΔΨm [4, 13] of 1.648, an MTT [5, 13] of −1.071 and a Viability [6, 13] of −0.259. It also gave a nucOX [7, 13] of −0.100, a GE-HTS [1, 13] of −0.128 and a cyt c [8, 13] of −0.346. It also gave an ROS [2, 13] of 1.299 and a mitoOX [9, 13] of −0.086.

`COc1c2occc2cc2ccc(=O)oc12` [methoxsalen] gave a ΔΨm [4, 13] of −0.034, an MTT [5, 13] of −0.976 and a Viability [6, 13] of 0.416. It also gave a nucOX [7, 13] of −0.513, a GE-HTS [1, 13] of −0.562 and a cyt c [8, 13] of −0.889. The ROS [2, 13] was 0.310 and the mitoOX [9, 13] was −0.489.

`COc1cc2occc2c2oc(=O)ccc12` [isobergaptene] gave a ΔΨm [4, 14] of −0.112, an MTT [5, 14] of −1.025 and a Viability [6, 14] of 0.375. The nucOX [7, 14] was 0.338, the GE-HTS [1, 14] was 0.514 and the cyt c [8, 14] was 0.486. The ROS [2, 14] was 1.329 and the mitoOX [9, 14] was 0.715.

In the case of `Sc1nc2ccccc2s1` [2-mercaptobenzothiazole], the “ΔΨm (composite Z-score)” value ([4]; Conc 20 μM) is reported as −0.486, the “MTT (composite Z-score)” value ([5]; Conc 20 μM) is reported as −0.672 and the “Viability (composite Z-score)” value ([6]; Conc 20 μM) is reported as −0.830. The “nucOX (composite Z-score)” value ([7]; Conc 20 μM) was −0.231, the “GE-HTS (composite Z-score)” value ([1]; Conc 20 μM) was −0.211 and the “cyt c (composite Z-score)” value ([8]; Conc 20 μM) was −0.026. The “ROS (composite Z-score)” value ([2]; Conc 20 μM) was 0.354 and the “mitoOX (composite Z-score)” value ([9]; Conc 20 μM) was −0.097.

For `CC(C)c1ccc2c(c1)CCC1[C@](C)(CN)CCC[C@]21C.O=S(=O)(O)O` (stereo partly drawn) [18-aminoabieta-8,11,13-triene sulfate], the “ΔΨm (composite Z-score)” value ([4]; Conc 20 μM) was −0.519, the “MTT (composite Z-score)” value ([5]; Conc 20 μM) was −0.762 and the “Viability (composite Z-score)” value ([6]; Conc 20 μM) was −0.143. The “nucOX (composite Z-score)” value ([7]; Conc 20 μM) was −0.771, the “GE-HTS (composite Z-score)” value ([1]; Conc 20 μM) was −0.727 and the “cyt c (composite Z-score)” value ([8]; Conc 20 μM) was 0.507. The “ROS (composite Z-score)” value ([2]; Conc 20 μM) was 2.176 and the “mitoOX (composite Z-score)” value ([9]; Conc 20 μM) was −0.462.

Work on `CCN1C[C@]2(COC)[C@H](O)C[C@H](OC)[C@@]34[C@@H]5C[C@@]6(O)[C@H](OC(=O)c7ccccc7)[C@@H]5[C@@](OC(C)=O)([C@@H]([C@H](OC)[C@H]23)[C@@H]14)[C@@H](O)[C@@H]6OC` [aconitine] yielded a ΔΨm [4, 15] of −0.073, an MTT [5, 15] of −0.584 and a Viability [6, 15] of 0.132. It also gave a nucOX [7, 15] of 0.356, a GE-HTS [1, 15] of 0.169 and a cyt c [8, 15] of 0.751. For the same compound, the cyt c ([8]; composite Z-score vs mock-treated (DMSO) wells, concentration of each compound in μM) was 1.609, the ROS [2, 15] was 1.038 and the mitoOX [9, 15] was −0.198.

Compound `N[C@H]1C(O)O[C@H](CO)[C@H](O)[C@@H]1O[C@@H]1O[C@H](C(=O)O)[C@@H](O)[C@H](O)[C@H]1O` (stereo partly drawn) [chondrosine] has a ΔΨm [4, 15] of −1.001, an MTT [5, 15] of −1.759 and a Viability [6, 15] of −0.800. For the same compound, the nucOX [7, 15] was −0.782, the GE-HTS [1, 15] was −0.743 and the cyt c [8, 15] was 0.040. The ROS [2, 15] was 0.741 and the mitoOX [9, 15] was −0.476.

`COc1ccc([C@@H]2CC(=O)c3c(O)cc(O[C@@H]4O[C@H](CO[C@@H]5O[C@@H](C)[C@H](O)[C@@H](O)[C@H]5O)[C@@H](O)[C@H](O)[C@H]4O)cc3O2)cc1O` [hesperidin] showed a ΔΨm [4, 13] of −0.251, an MTT [5, 13] of −0.992 and a Viability [6, 13] of 0.694. The nucOX [7, 13] was −0.106, the GE-HTS [1, 13] was −0.618 and the cyt c [8, 13] was 0.621. The ROS [2, 13] was −0.281 and the mitoOX [9, 13] was −1.561.

For `O=[N+]([O-])NC1=NCCN1Cc1ccc(Cl)nc1` [imidacloprid], the ΔΨm [4, 15] was −0.019, the MTT [5, 15] was −0.893 and the Viability [6, 15] was −0.121. It also gave a nucOX [7, 15] of −0.214, a GE-HTS [1, 15] of −0.294 and a cyt c [8, 15] of 0.607. The ROS [2, 15] was 0.075 and the mitoOX [9, 15] was −0.368.

`C=CC(C1=CC(=O)C(OC)=C(OC)C1=O)c1ccccc1` (stereo not drawn) [3,4-dimethoxydalbergione, reference compound] gave a ΔΨm [4, 14] of −3.787, an MTT [5, 14] of −6.200 and a Viability [6, 14] of −4.588. The “nucOXPHOS Z” value [7, 16] was −2.94, the nucOX [7, 14] was −2.944 and the GE-HTS [1, 14] was −3.047. For the same compound, the cyt c [8, 14] was −5.551, the ROS [2, 14] was −1.269 and the “mito-OXPHOS Z” value [9, 16] was −2.72. For the same compound, the mitoOX [9, 14] was −2.724.

`CC(C)[C@@H](C)C=C[C@@H](C)[C@H]1CC[C@H]2C3=CCC4CC(=O)CC[C@]4(C)[C@H]3CC[C@]12C` (stereo partly drawn) [ergosta-7,22-dien-3-one] was tested, and the ΔΨm [4, 15] was −0.544, the MTT [5, 15] was −2.474 and the Viability [6, 15] was −0.892. It also gave a nucOX [7, 15] of −0.764, a GE-HTS [1, 15] of −0.708 and a cyt c [8, 15] of 0.221. It also gave an ROS [2, 15] of 0.912 and a mitoOX [9, 15] of −0.415.
